The record followed here is patent US10077261B2, “Imidazolin-5-one derivative useful as FASN inhibitors for the treatment of cancer” (Janssen Pharmaceutica NV, priority 2012, dated 2018).

As a reminder, the inhibition is the relative decrease from the control value, in per cent. A word on the pIC50: it is the IC50 on a negative log10 scale, so that one unit is a factor of ten. High values mean a low IC50, low ones a high IC50.

pIC50: −log10 of the molar value.

The test system of assay [1] is A2780 ovarian cells. Nature of the assay: A2780 ovarian cell proliferation assay in lipid reduced medium, with palmitate (MTT). The assay is classed as cell-based. Conditions: Homo sapiens, A2780, 96 h; read-out: pIC50 A2780 Ovarian Cell, With Palmitate (converted). In a few lines: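 Seeded cells were switched next day to lipid-reduced serum, exposed to compound and 25 μM palmitate complexed with fatty-acid-free BSA, and incubated 96 h. Proliferation was then determined by MTT absorbance at 544 nm, with a best-fit curve of signal against concentration.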

Assay [2] has as its target T1, hFASN enzyme (full length) (Homo sapiens, UniProt P49327).
T1 construct: 10 μL hFASN enzyme (full length, 300 ng, purified in house); made in house
The experiment in a line: Fatty Acid Synthase (FASN) inhibition scintillation proximity assay. The settings on record: for inhibition at 10 µM: read-out: Human FASN % inhibition @ 10 μM, 10 μM test compound; for IC50: read-out: Human FASN pIC50 (converted). The assay is classed as biochemical. The essentials:
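Compounds at 0.01–30 μM were mixed with 300 ng purified full-length enzyme in 100 mM KH2PO4 pH 7.5, 1 mM DTT. Substrates ³H-acetyl-CoA and malonyl-CoA were then converted, and bead addition stopped the reaction. Signal was normalised to low and high plate controls and fitted by 4-parameter nonlinear regression.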
Background: Scintillation proximity formats need no separation of bound from free tracer.

The test system of assay [3] is A2780 ovarian cells. The experiment in a line: A2780 ovarian cell proliferation assay in lipid reduced medium, without palmitate (MTT). The assay is classed as cell-based. Conditions: Homo sapiens, A2780, 96 h; read-out: pIC50 A2780 Ovarian Cell, Without Palmitate (converted).
In assay [4] the test system is PC-3M-Luc-C6 prostate cells. The experiment in a line: In vitro PC-3M-Luc-C6 prostate cell proliferation assay in lipid reduced medium. The assay is classed as cell-based. The settings on record: 96 h, read-out: pIC50 PC-3M-Luc-C6 prostate cell (converted).
Assay [5] addresses Fatty Acid Synthase Keto-reductase Domain (FASN KR) (Homo sapiens, UniProt P49327). The experiment in a line: Fatty Acid Synthase keto-reductase domain (FASN KR) inhibition, NADPH oxidation at 340 nm.
Protocol: After 20 minutes incubation at room temperature the plate was measured again (T2).
The decrease in absorbance was calculated as (Absorbance before incubation T1)−(Absorbance following incubation T2).
A plot of Controlmin versus test compound concentration was fitted to a 4-parameter logistic curve using a non-linear least squares regression method.
In assay [6] the test system is LNCaP-Vancouver prostate cells. Nature of the assay: In vitro LNCaP Vancouver prostate cell proliferation assay in lipid reduced medium. The assay is classed as cell-based. Conditions: read-out: pIC50 LNCaP_Vancouver prostate cell (converted).

Sequence of Fatty Acid Synthase Keto-reductase Domain (FASN KR) (P49327 whole entry, the tested form may be a part): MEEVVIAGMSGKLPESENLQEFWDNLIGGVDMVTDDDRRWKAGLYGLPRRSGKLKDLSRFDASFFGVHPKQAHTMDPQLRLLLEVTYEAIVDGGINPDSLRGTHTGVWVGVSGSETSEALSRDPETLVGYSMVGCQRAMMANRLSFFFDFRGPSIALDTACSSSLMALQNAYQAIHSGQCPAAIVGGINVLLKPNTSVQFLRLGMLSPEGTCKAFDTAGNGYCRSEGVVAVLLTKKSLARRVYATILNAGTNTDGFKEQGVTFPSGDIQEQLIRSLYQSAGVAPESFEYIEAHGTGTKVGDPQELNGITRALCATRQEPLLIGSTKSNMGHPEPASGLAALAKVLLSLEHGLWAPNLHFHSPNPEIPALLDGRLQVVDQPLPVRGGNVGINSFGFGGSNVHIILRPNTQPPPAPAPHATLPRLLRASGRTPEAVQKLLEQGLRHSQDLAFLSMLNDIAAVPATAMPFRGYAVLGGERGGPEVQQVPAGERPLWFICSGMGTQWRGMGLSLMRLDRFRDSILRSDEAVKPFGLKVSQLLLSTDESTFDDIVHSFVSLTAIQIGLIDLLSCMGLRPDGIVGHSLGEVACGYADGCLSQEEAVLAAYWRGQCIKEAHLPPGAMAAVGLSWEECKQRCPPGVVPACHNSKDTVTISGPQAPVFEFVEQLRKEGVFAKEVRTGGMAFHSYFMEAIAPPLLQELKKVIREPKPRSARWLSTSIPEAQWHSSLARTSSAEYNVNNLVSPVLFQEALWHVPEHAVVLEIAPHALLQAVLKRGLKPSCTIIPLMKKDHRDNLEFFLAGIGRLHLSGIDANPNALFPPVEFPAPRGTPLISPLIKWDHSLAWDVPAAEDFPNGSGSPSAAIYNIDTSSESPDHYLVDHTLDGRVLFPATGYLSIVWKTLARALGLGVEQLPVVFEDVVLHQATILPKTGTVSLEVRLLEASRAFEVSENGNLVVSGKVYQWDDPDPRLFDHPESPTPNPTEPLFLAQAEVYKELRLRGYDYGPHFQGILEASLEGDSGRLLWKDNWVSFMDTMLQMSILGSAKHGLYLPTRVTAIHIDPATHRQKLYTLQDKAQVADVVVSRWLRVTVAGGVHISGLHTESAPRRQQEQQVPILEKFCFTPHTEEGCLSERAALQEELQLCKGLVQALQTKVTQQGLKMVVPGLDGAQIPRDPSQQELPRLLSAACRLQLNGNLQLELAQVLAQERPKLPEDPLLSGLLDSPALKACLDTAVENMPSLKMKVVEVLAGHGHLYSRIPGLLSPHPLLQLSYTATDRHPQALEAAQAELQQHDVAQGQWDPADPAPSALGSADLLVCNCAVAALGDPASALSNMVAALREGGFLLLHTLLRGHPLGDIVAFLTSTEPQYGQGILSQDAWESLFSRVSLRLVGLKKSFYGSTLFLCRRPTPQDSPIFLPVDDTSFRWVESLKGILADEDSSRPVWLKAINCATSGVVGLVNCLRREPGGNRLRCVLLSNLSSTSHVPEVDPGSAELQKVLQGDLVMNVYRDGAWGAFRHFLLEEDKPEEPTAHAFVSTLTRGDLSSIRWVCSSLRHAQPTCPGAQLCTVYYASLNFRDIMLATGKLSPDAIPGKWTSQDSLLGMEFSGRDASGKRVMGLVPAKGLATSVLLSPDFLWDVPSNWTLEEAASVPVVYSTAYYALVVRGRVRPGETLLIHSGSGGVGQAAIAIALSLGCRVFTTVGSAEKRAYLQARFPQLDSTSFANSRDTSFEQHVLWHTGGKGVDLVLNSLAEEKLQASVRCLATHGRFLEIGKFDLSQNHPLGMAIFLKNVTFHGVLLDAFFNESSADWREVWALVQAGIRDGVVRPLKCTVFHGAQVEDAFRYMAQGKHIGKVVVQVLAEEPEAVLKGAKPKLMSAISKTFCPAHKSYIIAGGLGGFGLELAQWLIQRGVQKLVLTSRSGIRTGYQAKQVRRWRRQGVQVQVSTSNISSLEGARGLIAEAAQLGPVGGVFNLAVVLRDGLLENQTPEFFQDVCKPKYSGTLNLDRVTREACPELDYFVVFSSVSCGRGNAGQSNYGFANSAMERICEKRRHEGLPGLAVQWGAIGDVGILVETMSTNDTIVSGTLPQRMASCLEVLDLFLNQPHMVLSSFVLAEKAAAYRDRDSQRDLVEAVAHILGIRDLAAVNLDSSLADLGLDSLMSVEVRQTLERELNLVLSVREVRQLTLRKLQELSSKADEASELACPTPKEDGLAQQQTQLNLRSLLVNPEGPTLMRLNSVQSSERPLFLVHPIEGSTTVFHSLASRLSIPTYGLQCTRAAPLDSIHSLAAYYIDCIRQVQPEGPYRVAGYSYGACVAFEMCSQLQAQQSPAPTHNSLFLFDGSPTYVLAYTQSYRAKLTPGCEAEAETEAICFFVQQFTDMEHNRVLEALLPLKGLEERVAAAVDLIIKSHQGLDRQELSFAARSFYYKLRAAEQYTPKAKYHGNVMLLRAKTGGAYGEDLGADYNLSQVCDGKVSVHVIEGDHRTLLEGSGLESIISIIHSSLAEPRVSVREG
T1 sequence (P49327 whole entry): as the sequence (P49327 whole entry, the tested form may be a part) above

`O=C(C1CC1)N1CC(CN2C(=O)C3(CCN(C(=O)C(F)(F)F)CC3)N=C2c2ccc(-c3ccc4[nH]ccc4c3)cc2)C1` [compound 765, 3-{[1-(Cyclopropylcarbonyl)azetidin-3-yl]methyl}-2-[4-(1H-indol-5-yl)phenyl]-8-(trifluoroacetyl)-1,3,8-triazaspiro[4.5]dec-1-en-4-one]: the IC50 in the assay with A2780 ovarian cells [1] was above 10000 nM; in assay [2] it was 363 nM; in the assay with A2780 ovarian cells [3] it was 2190 nM; in assay [4], 2090 nM; in assay [6], 8910 nM. The inhibition at 10 µM in assay [2] turned out to be 96%. The same compound had a negative logarithm of the IC50 (pIC50) in assay [5] of 6.08.

Take `N#Cc1ccc2cc(-c3ccc(C4=NC5(CC5)C(=O)N4CC4CN(C(=O)C5(O)CC5)C4)c(F)c3)ccc2c1` [compound 872, 6-(3-fluoro-4-(6-((1-(1-hydroxycyclopropanecarbonyl)azetidin-3-yl)methyl)-7-oxo-4,6-diazaspiro[2.4]hept-4-en-5-yl)phenyl)-2-naphthonitrile]: the IC50 with A2780 ovarian cells [1] is around 7940 nM; in assay [2], 23.4 nM; with A2780 ovarian cells [3], 2.69 nM; in assay [4], 4.79 nM; in assay [6], 24 nM. The inhibition at 10 µM in assay [2] worked out at 99%. In assay [5], this compound had a pIC50 of 7.37.

Turning to `O=C(C1CC1)N1CC[C@@H](CN2C(=O)C3(CCCC3)N=C2c2ccc(-c3ccc4cccnc4c3)cc2F)C1` [compound 875, (R)-3-((1-(cyclopropanecarbonyl)pyrrolidin-3-yl)methyl)-2-(2-fluoro-4-(quinolin-7-yl)phenyl)-1,3-diazaspiro[4.4]non-1-en-4-one], the IC50 in the assay on A2780 ovarian cells [1] was above 10000 nM; in assay [2], 25.1 nM; in the assay with A2780 ovarian cells [3], 13.5 nM; in assay [4], 10.5 nM; in assay [6], 87.1 nM. The inhibition at 10 µM in assay [2] came out at 104%. Besides, in assay [5], the pIC50 is 7.54.

Regarding `O=C(C1CC1)N1CC[C@@H](CN2C(=O)C3(CCCC3)N=C2c2ccc(-c3ccc4sccc4c3)cc2F)C1` [compound 876], the IC50 with A2780 ovarian cells [1] is above 10000 nM; in assay [2], 30.9 nM; with A2780 ovarian cells [3], 229 nM; in assay [4], 120 nM; in assay [6] it was 617 nM. The inhibition at 10 µM in assay [2] turned out to be 105%. In assay [5], this compound had a negative logarithm of the IC50 (pIC50) of 7.44.

On to `O=C(C1CC1)N1CC[C@@H](CN2C(=O)C3(CCCC3)N=C2c2ccc(-c3ccc4[nH]cnc4c3)cc2F)C1` [compound 877, (R)-2-(4-(1H-benzo[d]imidazol-5-yl)-21-fluorophenyl)-3-((1-(cyclopropanecarbonyl)pyrrolidin-3-yl)methyl)-1,3-diazaspiro[4.4]non-1-en-4-one], for which the IC50 in the assay with A2780 ovarian cells [1] was above 10000 nM; in assay [2], 33.9 nM; in the assay on A2780 ovarian cells [3], 21.4 nM; in assay [4], 45.7 nM; in assay [6], around 407 nM. Besides, in assay [2], the inhibition at 10 µM came to 103%. The same compound gave a negative-log IC50 (pIC50) in assay [5] of 7.13.

`O=C(C1CC1)N1CC[C@@H](CN2C(=O)C3(CCCC3)N=C2c2ccc(-c3ccc4cn[nH]c4c3)cc2F)C1` [compound 879, (R)-3-((1-(cyclopropanecarbonyl)pyrrolidin-3-yl)methyl)-2-(2-fluoro-4-(1H-indazol-6-yl)phenyl)-1,3-diazaspiro[4.4]non-1-en-4-one]: the IC50 in the assay with A2780 ovarian cells [1] is above 10000 nM; in assay [2], 41.7 nM; in the assay with A2780 ovarian cells [3], 25.1 nM; in assay [4], 30.9 nM; in assay [6] it was 380 nM. The inhibition at 10 µM in assay [2] came to 104%. The compound also gave a pIC50 in assay [5] of 7.26.

Take `Cn1ncc2cc(-c3ccc(C4=NC5(CCCC5)C(=O)N4C[C@@H]4CCN(C(=O)C5CC5)C4)c(F)c3)ccc21` [compound 880, (R)-3-((1-(cyclopropanecarbonyl)pyrrolidin-3-yl)methyl)-2-(2-fluoro-4-(1-methyl-1H-indazol-5-yl)phenyl)-1,3-diazaspiro[4.4]non-1-en-4-one]: the IC50 with A2780 ovarian cells [1] is above 10000 nM; in assay [2] it was 79.4 nM; with A2780 ovarian cells [3] it was 66.1 nM; in assay [4], 117 nM; in assay [6], 646 nM. Also, in assay [2], the inhibition at 10 µM is 101%. Also, the negative logarithm of the IC50 (pIC50) in assay [5] was 6.95.

Regarding `Cc1cc(-c2ccc3c(c2)CCO3)ccc1C1=NC2(CCCC2)C(=O)N1C[C@@H]1CCN(C(=O)C2CC2)C1` [compound 884, (R)-3-((1-(cyclopropanecarbonyl)pyrrolidin-3-yl)methyl)-2-(4-(2,3-dihydrobenzofuran-5-yl)-2-methylphenyl)-1,3-diazaspiro[4.4]non-1-en-4-one], the IC50 was above 10000 nM in the assay on A2780 ovarian cells [1]; 288 nM in assay [2]; around 2140 nM with A2780 ovarian cells [3]; around 1820 nM in assay [4]; 3020 nM in assay [6]. For the same compound, the inhibition at 10 µM in assay [2] amounted to 100%. The pIC50 in assay [5] was 6.13.

As to `O=C(C1CC1)N1CC[C@@H](CN2C(=O)C3(CCCC3)N=C2c2ccc(-c3ccc4[nH]c(=O)[nH]c4c3)cc2F)C1` [compound 885, (R)-5-(4-(3-((1-(cyclopropanecarbonyl)pyrrolidin-3-yl)methuyl)-4-oxo-1,3-diazaspiro[4.4]non-1-en-2-yl)-3-fluorophenyl)-1H-benzo[d]imidazol-2(3H)-one], the IC50 in the assay on A2780 ovarian cells [1] is above 10000 nM; in assay [2], 309 nM; in the assay with A2780 ovarian cells [3], around 2240 nM; in assay [4], around 2630 nM; in assay [6], above 10000 nM. Further, the inhibition at 10 µM in assay [2] amounted to 98%. The compound further gave a pIC50 in assay [5] of 6.31.
